Measured values taken from patent publication US6060481A, “Method for improving insulin sensitivity using an adenosine receptor antagonist” (priority 1999, dated 2000).

How the values were obtained:
[1] = biological target: T1, human A2A adenosine receptor (Homo sapiens, UniProt P29274); assay: Binding constants against cloned and expressed human adenosine receptor subtypes (A2A); conditions: read-out: Binding constant (KD) A2A
T1 construct: expressed in transfected cells

[2] = tested on: protein tyrosine phosphatase; assay: Protein tyrosine phosphatase assay of gastrocnemius fractions and insulin receptor preparations of treated rats; format: in vivo, Zucker rats
Procedure: Approximately 100 mg frozen tissue were homogenized in 5 ml buffer containing 10 mM NaHCO3, (pH 7.4), 250 mM sucrose, 0.1 mg/ml aprotinin, 0.05 mg/ml leupeptin, 1 mM phenylmethysulfonyl fluoride (PMSF), and 5 mM NaN3 (CHB buffer) and then sonicated for 1 min on ice with three 20-sec bursts. The sonicate was centrifuged at 1,200 g for 10 min at 4° C. Three ml of CHB medium was added to the pellet which was then rehomogenized for 1 min and respun. The suspensions of the two pellets were combined, rehomogenized, and respun at 10,000 g for 10 minutes at 4° C. The 10,000 g pellet was discarded and the supernatant was transferred to a cold Ti75 ultracentrifuge tube and spun at 270,000 g for 90 minutes. The supernatant of the high speed centrifugation (cytosol) was used for PTPase assays. The 270,000 g pellet was resuspended in 0.500 ml buffer containing 250 mM sucrose, 20 mM HEPES (pH 7.4), 0.6 M KC1, and 1% Triton X-100. A 27 gauge syringe needle was used to completely solubilize the pellet. The supernatant was spun at 12,000 rpm for 20 min and the resulting supernatant, termed particulate fraction was then dialyzed overnight at 4° C. against 20 mM HEPES (pH 7.2) and 0.1% β-mercaptoethanol. Samples were stored at -70° C. until used for PTPase assays.
Each tube contained 10 μl [^32 P]tyrosine-phosphorylated myelin basic protein (1×10^4 dpm; 2×10^3 dpm/pmol), 10 μl 5X PTP-ase buffer [250 mM HEPES (pH 7.0), 10 mM EDTA, 5 mM DTT], and 1-5 μg muscle fraction protein and water in a total volume of 40 μl. Consumption of substrate (phosphorylated myelin basic protein) was limited to 20%.
One unit of PTPase activity is defined as the amount of enzyme releasing 1 nmol phosphate/min from myelin basic protein.
(§1) PTPase was measured in skeletal muscle cytosolic fractions, particulate fractions, and in partially purified insulin receptors. To assay PTPase activity in partially purified insulin receptors the WGA eluates were dialyzed overnight against 0.1% β-mercaptoethanol and 20 mM HEPES, pH 7.2, to eliminate phosphatase inhibitors.

[3] = tested on: protein tyrosine phosphatase; assay: In vitro inclusion of compound in WGA eluates, protein tyrosine phosphatase assay; format: biochemical, Zucker rats; conditions: 10 μM in vitro in WGA eluates from obese controls
Procedure: Assays were performed at 25° C. using a slight modification of a protocol described by Ahmad and Goldstein, Am. […] Each tube contained 10 μl [^32 P]tyrosine-phosphorylated myelin basic protein (1×10^4 dpm; 2×10^3 dpm/pmol), 10 μl 5X PTP-ase buffer [250 mM HEPES (pH 7.0), 10 mM EDTA, 5 mM DTT], and 1-5 μg muscle fraction protein and water in a total volume of 40 μl. Consumption of substrate (phosphorylated myelin basic protein) was limited to 20%. […] The assay differs from that of Ahmed and Goldstein in that the amount of phosphorylated substrate (myelin basic protein) was lower and its specific activity higher, similar to the skeletal muscle PTPase assay described by Tanowitz, et al., Brain Res., 712:299-306 (1996).
as §1

rat A3 receptor = biological target: T2, rat A3 receptor (Rattus norvegicus, UniProt P28647); conditions: rat versus human A3; cited from earlier work
T2 sequence (P28647 1-320): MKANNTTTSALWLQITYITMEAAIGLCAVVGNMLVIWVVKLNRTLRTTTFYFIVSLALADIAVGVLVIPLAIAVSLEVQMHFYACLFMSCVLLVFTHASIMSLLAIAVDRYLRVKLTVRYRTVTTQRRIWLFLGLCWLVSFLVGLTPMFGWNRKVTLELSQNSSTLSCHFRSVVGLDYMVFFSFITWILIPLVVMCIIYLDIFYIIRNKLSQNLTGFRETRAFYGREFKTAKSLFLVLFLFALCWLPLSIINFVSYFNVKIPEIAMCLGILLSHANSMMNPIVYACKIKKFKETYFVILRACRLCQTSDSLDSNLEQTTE

[4] = Zucker rats; cited from earlier work

T1 sequence (P29274 whole entry): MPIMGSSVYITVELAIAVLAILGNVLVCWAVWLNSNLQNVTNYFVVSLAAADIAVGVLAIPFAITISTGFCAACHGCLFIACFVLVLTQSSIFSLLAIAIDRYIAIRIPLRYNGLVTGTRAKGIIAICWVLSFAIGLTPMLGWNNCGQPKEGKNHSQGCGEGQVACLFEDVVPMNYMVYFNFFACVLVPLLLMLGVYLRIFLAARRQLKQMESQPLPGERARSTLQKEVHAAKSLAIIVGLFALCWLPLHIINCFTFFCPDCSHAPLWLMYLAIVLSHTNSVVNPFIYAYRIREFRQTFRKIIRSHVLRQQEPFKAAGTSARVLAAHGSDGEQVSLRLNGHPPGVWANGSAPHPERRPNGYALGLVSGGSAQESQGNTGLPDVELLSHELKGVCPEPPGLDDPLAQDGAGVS

CCCn1c(=O)c2[nH]c(-c3ccc(C=CC(=O)O)cc3)nc2n(CCC)c1=O [BWA1433, 1,3-dipropyl-8-(p-acrylic)phenylxanthine]
Kd [1]: 0.19 µM | Phosphatase activity in cytosolic fractions of gastrocnemius ([2]; between groups (lean, obese, ± treatment)): No differences | PTPase activity in particulate fraction of gastrocnemius ([2]; obese Zucker rats): reduction | Reduction of phosphatase activity in partially-purified insulin receptor preparations compared to untreated controls ([2]; obese rats): 27% | Effect on protein tyrosine phosphatase activity [3]: no effect | KD of rat A3 receptor relative to human A3 receptor (rat A3 receptor): much higher | Glucose tolerance [4]: improves glucose tolerance
